Test results: ChEMBL document CHEMBL3885881, “DrugMatrix”

Organism: Rattus norvegicus
Test: DrugMatrix - Regimen: Daily Repeat
Format: toxicity, organism-based, Sprague-Dawley
Design: regimen Daily Repeat, gender Male, age 6-8 weeks
Details: in vivo, po, route oral GAVAGE, vehicle 100 % WATER; for ABSOLUTE BASOPHIL / ABSOLUTE EOSINOPHIL / ABSOLUTE LYMPHOCYTE / ABSOLUTE MONOCYTE / ABSOLUTE SEGMENTED NEUTROPHIL / BASOPHIL / EOSINOPHIL / ERYTHROCYTE COUNT / HEMATOCRIT / HEMOGLOBIN / LEUKOCYTE COUNT / LYMPHOCYTE / MEAN CORPUSCULAR HEMOGLOBIN / MEAN CORPUSCULAR HEMOGLOBIN CONCENTRATION / MEAN CORPUSCULAR VOLUME / MONOCYTE / NEUTROPHIL / NUCLEATED RED BLOOD CELLS / PLATELET COUNT: tissue Blood; for ALANINE AMINOTRANSFERASE / ALBUMIN / ALKALINE PHOSPHATASE / ASPARTATE AMINOTRANSFERASE / BLOOD UREA NITROGEN / CARBON DIOXIDE / CHLORIDE / CHOLESTEROL / CREATINE PHOSPHOKINASE / CREATININE / GLUCOSE / LACTATE DEHYDROGENASE / LIPASE / PHOSPHORUS / POTASSIUM / SODIUM / TOTAL BILIRUBIN / TOTAL PROTEIN / URIC ACID: tissue Plasma
[1] = 58 mg/kg, 120 h, dose level Low, time 5 day
[2] = 220 mg/kg, 72 h, dose level High, time 3 day
[3] = 220 mg/kg, 120 h, dose level High, time 5 day

NC12CC3CC(CC(C3)C1)C2 [AMANTADINE]
ABSOLUTE BASOPHIL [1]: 0 CELLS/uL
ABSOLUTE EOSINOPHIL [1]: 0 CELLS/uL
ABSOLUTE LYMPHOCYTE [1]: 10747.67 CELLS/uL
ABSOLUTE MONOCYTE [1]: 83.67 CELLS/uL
ABSOLUTE SEGMENTED NEUTROPHIL [1]: 1002 CELLS/uL
BASOPHIL [1]: 0%
EOSINOPHIL [1]: 0%
ERYTHROCYTE COUNT [1]: 6.06 x10E6/uL
HEMATOCRIT [1]: 37.8%
HEMOGLOBIN [1]: 14.9 G/DL
LEUKOCYTE COUNT [1]: 11.83 x10E3/uL
LYMPHOCYTE [1]: 89%
MEAN CORPUSCULAR HEMOGLOBIN [1]: 24.63 pg
MEAN CORPUSCULAR HEMOGLOBIN CONCENTRATION [1]: 39.43 G/DL
MEAN CORPUSCULAR VOLUME [1]: 62.5 fL
MONOCYTE [1]: 1%
NEUTROPHIL [1]: 10%
NUCLEATED RED BLOOD CELLS [1]: 0 /100WBC
PLATELET COUNT [1]: 1200.33 x10E3/uL
ALANINE AMINOTRANSFERASE [1]: 44 u/L
ALBUMIN [1]: 4.27 G/DL
ALKALINE PHOSPHATASE [1]: 432.67 u/L
ASPARTATE AMINOTRANSFERASE [1]: 73.33 u/L
BLOOD UREA NITROGEN [1]: 16 mg/dL
CARBON DIOXIDE [1]: 31 mmol/L
CHLORIDE [1]: 100.33 MEQ/L
CHOLESTEROL [1]: 73.33 mg/dL
CREATINE PHOSPHOKINASE [1]: 431.33 u/L
CREATININE [1]: 0.18 mg/dL
GLUCOSE [1]: 147 mg/dL
LACTATE DEHYDROGENASE [1]: 336 u/L
LIPASE [1]: 11.33 u/L
PHOSPHORUS [1]: 12.13 mg/dL
POTASSIUM [1]: 6.25 MEQ/L
SODIUM [1]: 142.77 MEQ/L
TOTAL BILIRUBIN [1]: 0.23 mg/dL
TOTAL PROTEIN [1]: 6.27 G/DL
URIC ACID [1]: 1.43 mg/dL
ABSOLUTE BASOPHIL [2]: 0 CELLS/uL
ABSOLUTE EOSINOPHIL [2]: 0 CELLS/uL
ABSOLUTE LYMPHOCYTE [2]: 17634 CELLS/uL
ABSOLUTE MONOCYTE [2]: 192.33 CELLS/uL
ABSOLUTE SEGMENTED NEUTROPHIL [2]: 940.33 CELLS/uL
BASOPHIL [2]: 0%
EOSINOPHIL [2]: 0%
ERYTHROCYTE COUNT [2]: 5.62 x10E6/uL
HEMATOCRIT [2]: 36.3%
HEMOGLOBIN [2]: 14.43 G/DL
LEUKOCYTE COUNT [2]: 18.77 x10E3/uL
LYMPHOCYTE [2]: 94%
MEAN CORPUSCULAR HEMOGLOBIN [2]: 25.7 pg
MEAN CORPUSCULAR HEMOGLOBIN CONCENTRATION [2]: 39.77 G/DL
MEAN CORPUSCULAR VOLUME [2]: 64.63 fL
MONOCYTE [2]: 1%
NEUTROPHIL [2]: 5%
NUCLEATED RED BLOOD CELLS [2]: 0 /100WBC
PLATELET COUNT [2]: 1304.33 x10E3/uL
ALANINE AMINOTRANSFERASE [2]: 42.33 u/L
ALBUMIN [2]: 4.23 G/DL
ALKALINE PHOSPHATASE [2]: 440 u/L
ASPARTATE AMINOTRANSFERASE [2]: 69 u/L
BLOOD UREA NITROGEN [2]: 13.67 mg/dL
CARBON DIOXIDE [2]: 32 mmol/L
CHLORIDE [2]: 101 MEQ/L
CHOLESTEROL [2]: 61 mg/dL
CREATINE PHOSPHOKINASE [2]: 227.67 u/L
CREATININE [2]: 0.16 mg/dL
GLUCOSE [2]: 149 mg/dL
LACTATE DEHYDROGENASE [2]: 138.67 u/L
LIPASE [2]: 10.67 u/L
PHOSPHORUS [2]: 11.67 mg/dL
POTASSIUM [2]: 6.52 MEQ/L
SODIUM [2]: 143.17 MEQ/L
TOTAL BILIRUBIN [2]: 0.17 mg/dL
TOTAL PROTEIN [2]: 5.93 G/DL
URIC ACID [2]: 1.7 mg/dL
ABSOLUTE BASOPHIL [3]: 0 CELLS/uL
ABSOLUTE EOSINOPHIL [3]: 49 CELLS/uL
ABSOLUTE LYMPHOCYTE [3]: 15618.33 CELLS/uL
ABSOLUTE MONOCYTE [3]: 94.33 CELLS/uL
ABSOLUTE SEGMENTED NEUTROPHIL [3]: 971.67 CELLS/uL
BASOPHIL [3]: 0%
EOSINOPHIL [3]: 0.33%
ERYTHROCYTE COUNT [3]: 5.95 x10E6/uL
HEMATOCRIT [3]: 37.33%
HEMOGLOBIN [3]: 14.67 G/DL
LEUKOCYTE COUNT [3]: 16.73 x10E3/uL
LYMPHOCYTE [3]: 93.33%
MEAN CORPUSCULAR HEMOGLOBIN [3]: 24.73 pg
MEAN CORPUSCULAR HEMOGLOBIN CONCENTRATION [3]: 39.3 G/DL
MEAN CORPUSCULAR VOLUME [3]: 62.9 fL
MONOCYTE [3]: 0.67%
NEUTROPHIL [3]: 5.67%
NUCLEATED RED BLOOD CELLS [3]: 0 /100WBC
PLATELET COUNT [3]: 1216.33 x10E3/uL
ALANINE AMINOTRANSFERASE [3]: 55.33 u/L
ALBUMIN [3]: 4.13 G/DL
ALKALINE PHOSPHATASE [3]: 501 u/L
ASPARTATE AMINOTRANSFERASE [3]: 86.67 u/L
BLOOD UREA NITROGEN [3]: 14 mg/dL
CARBON DIOXIDE [3]: 31 mmol/L
CHLORIDE [3]: 100.67 MEQ/L
CHOLESTEROL [3]: 67.33 mg/dL
CREATINE PHOSPHOKINASE [3]: 446.67 u/L
CREATININE [3]: 0.17 mg/dL
GLUCOSE [3]: 165.67 mg/dL
LACTATE DEHYDROGENASE [3]: 167.33 u/L
LIPASE [3]: 11 u/L
PHOSPHORUS [3]: 11.4 mg/dL
POTASSIUM [3]: 6.52 MEQ/L
SODIUM [3]: 143.23 MEQ/L
TOTAL BILIRUBIN [3]: 0.23 mg/dL
TOTAL PROTEIN [3]: 6.3 G/DL
URIC ACID [3]: 1.77 mg/dL
